Assay results published in patent publication EP0002058A1, “3-(2-Aminoethylthio-6-ethyl-7-oxo-1-azabicylo-(3.2.0)-hept-2-en-2-carboxylic acid, process for preparing it and compositions comprising it” (SANRAKU-OCEAN CO., LTD., priority 1977, dated 1979).
In brackets after ≈: the same amount, converted by molar mass. Structures can show the parent of a compound that is named as a salt.

How the values were obtained:
[1] = test system: Comanonas terrigena B-996; assay: Bioassay of antibacterial potency (disc on agar assay plate, CCU); format: cell-based; conditions: purified solid preparation
Description: • (1) Cells of Comanonas terrigena B-996, cultivated on a nutrient agar overnight, are suspended in a nutrient broth to give a seed culture having an absorbance at […], ascribable to the cells, of 0.04. A melted agar medium consisting of 0.8% Kyokuto powdered bouillon (Kyokuto Seiyaku Kogyo) and 1% Bacto agar (Difco Labs.) is inoculated with 1% of the seed culture. Seven ml portions of the agar medium are poured into petri dishes with a diameter of 9 cm and solidified to prepare a Comamonas assay plate. • (2) Staphylococcus aureus FDA209P is cultivated overnight with shaking in a nutrient broth. The culture is diluted to 50 times with a nutrient broth to obtain a seed culture. A melted agar medium consisting of 1% Kyokuto powdered bouillon (Kyokuto Seiyaku Kogyo) and 1% Bacto agar (Difco Labs.) is inoculated with 1% of the seed culture. Seven ml portions of the agar medium are poured into petri dishes with a diameter of 9 cm and solidified to prepare a Staphylococcus assay plate. • (3) A pulp disc with a diameter of 8 mm is soaked in a sample solution and put on the assay plate mentioned above after removing an excess of the sample solution soaked by placing on filter paper. […] The diameter of the inhibitory zone is measured. TIle concentration of the test compound in the sample solution is calculated by comparing the diameter with that of the standard solution.

[2] = test system: Klebsiella pneumoniae K-2; assay: Minimum inhibitory concentration, broth dilution method (brain heart infusion medium); format: cell-based; conditions: K2, inoculum about 1 x 10^5/ml, 35°C, 20 hours
Procedure: (§1) The minimum inhibitory concentration was determined on various pathogenic microorganisms including a resistant strain to the N-desacetyl derivative by the broth dilution method with a brain heart infusion medium "Eiken" (Eiken Kagaku Co.). Sample solutions to be tested were prepared in a serial dilution with the medium, which were inoculated with the test microorganisms at the final cell count of about 1 x 10^5/ml and incubated at 35 °C. After 20 hours the microbial growth was examined. The minimum inhibitory concentration was determined as the lowest concentration of the sample at which no growth of the corresponding test microorganism was observed.

[3] = test system: Staphylococcus aureus FDA 209P; assay: as above; format: cell-based; conditions: for MIC: Staphylococcus aureus, FDA209P, inoculum about 1 x 10^5/ml, 35°C, 20 hours
Procedure: as §1

[4] = test system: Staphylococcus aureus Russel; assay: as above; format: cell-based; conditions: inoculum about 1 x 10^5/ml, 35°C, 20 hours
Procedure: as §1

[5] = test system: Staphylococcus aureus Smith; assay: Activity in vivo in mice inoculated intraperitoneally with Staphylococcus aureus Smith; set-up: species or system male ddy mice; conditions: sc, 5 x 10^5 cells/mouse intraperitoneally, injected subcutaneously immediately after the inoculation, read-out: CD50 value
Procedure: The N-desacetyl derivative was prepared on a large scale in a similar manner to the above-described and the activity in vivo was determined in mice inoculated with 5 x 10^5 cells/mouse of Staphylococcus aureus Smith intraperitoneally. The derivative was injected subcutaneously immediately after the inoculation.

[6] = set-up: species or system male ddy mice; conditions: mouse, in vivo, ip, 500 mg/kg
Solubility = format: physicochemical
staphylococcal bacteria = assay: Antimicrobial spectrum (general statement); format: cell-based
[7] = test system: pathogenic Gram-positive bacteria; assay: Activity in vivo (general statement); conditions: mice infected with pathogenic Gram-positive bacteria

SMILES	antibacterial potency [1]	MIC [2] [µg/mL]	MIC [3] [µg/mL]	MIC [4] [µg/mL]	also measured
CC[C@H]1C(=O)N2C(C(=O)O)=C(SCCNC(C)=O)C[C@H]12 (relative stereo) [PS-5 sodium salt, reference compound]	21,000 CCU/mg	–	–	–	–
CC[C@H]1C(=O)N2C(C(=O)OC(c3ccccc3)(c3ccccc3)c3ccccc3)=C(SCCNC(C)=O)C[C@H]12 (relative stereo) [trityl ester of antibiotic PS-5]	10,800 CCU/mg	–	–	–	–
CO[C@@]1(NC(=O)Cc2cccs2)C(=O)N2C(C(=O)O)=C(COC(N)=O)CS[C@@H]21 [Cefoxitin, reference compound]	–	12.5 (≈ 29.2 µM)	1.56 (≈ 3.65 µM)	3.13 (≈ 7.32 µM)	–
CCC1C(=O)N2C(C(=O)O)=C(SCCN)CC12 (stereo not drawn) [N-desacetyl derivative]	–	5 (≈ 19.5 µM)	0.008 (≈ 0.0312 µM)	0.063 (≈ 0.246 µM)	inhibitory activity relative to that of the antibiotic PS-5 ([3]; Staphylococcus aureus FDA 209p, times higher than antibiotic PS-5): about 10 times; ED50 [5]: 0.55 mg/kg; acute toxicity [6]: No acute toxicity; Solubility in acetone, ethyl acetate and benzene (Solubility; acetone, ethyl acetate and benzene): practically insoluble; Solubility in water (Solubility; water): easily soluble; antimicrobial activity (staphylococcal bacteria): high antimicrobial activity; therapeutic effect [7]: remarkable therapeutic effect
